In patent US20230270764A1, “COMPOSITION COMPRISING CANNABINOIDS, TERPENES, AND FLAVONOIDS FOR TREATING DEPRESSION” (priority 2020, published 2023):

Columns and labels:
Format in all cases: in vivo
LPS-injected mice [1] = test: Social exploration test in the LPS-induced model of depression
From the text: In a preliminary screening experiment, subjects were 4-6 months-old male C57BL/6 (Jackson Laboratories, USA). Animals were housed 2-3/cage, kept in an air-conditioned room (23+°C) and given ad libitum access to food and water. The mice were kept in a reversed light/dark cycle, with lights off from 7 a.m. to 7 p.m. All experiments were approved by the Hebrew University of Jerusalem Ethics Committee on Animal Care and Use. In preparation for the Sucrose Preference Test, mice were habituated 2-3 times to sucrose drinking, by exposing them overnight to two graduated tubes, one containing water and the other containing sucrose solution (1%, w/v). Water and sucrose consumption were measured, and sucrose preference was computed by dividing the amount of sucrose consumed by drinking (ml sucrose) by the total drinking volume (ml of sucrose + water). One day later, the weight of the mice and the food in their cages was weighed for later analysis of food consumption and body weight changes. […] In this test, the measured locomotor activity reflects not only motor capacity, but particularly the innate motivation for spatial exploration (which increases the distance travelled) and the anxiety level (which reduces the distance travelled, in general, and particularly the distance and time spent in the center of the open field). […] The distance travelled (cm), the velocity of the movement (cm/second), the time spent (seconds), distance travelled (cm) in the center area of the arena, as well as the number of entries from the perimeter area into the center of the arena were automatically measured over a 4-minute period, using EthoVision XT video tracking system and software (Noldus, The Netherlands). […] Social exploration, defined as the time of near contact between the nose of the subject and the juvenile in the small cage was recorded for 4 min, using computerized in-house software. Sucrose preference was assessed, as described above, between 8 to 27 hr post LPS injection. […]

C57BL/6 mice = test: Porsolt forced swim test; details: CLX 10 mg/kg; CBD 5 mg/kg i.p.
From the text: All experiments were approved by the Hebrew University of Jerusalem Ethics Committee on Animal Care and Use. […] All data are presented as mean ± SEM.

LPS-injected mice [2] = test: Porsolt forced swim test in LPS-injected mice; details: young-adult male mice
Method: Given the mixed effects that CBD administration had in the reversal of LPS-induced depressive-like behavior in young-adult mice, the effects of CBDA by itself, and in combination with CBD, were examined in young-adult (2.5-3.5 months old) female and male mice. Mice were injected (i.p.) with either vehicle, CBDA or CBD and CBDA combination, and 1 hr later with LPS (330 µg/kg). Following injections, the mice were examined according to the methods described in Example 8, apart from the Porsolt forced swim test that replaced the open field test in male mice. In this test, mice were placed in a plastic cylinder (with a height of 20 cm and diameter of 50 cm), filled with 25° C. water. The time spent immobile, defined as the absence of all movement except for motions required to maintain head above water, and the latency for the first immobility episode, were recorded for 6 min, and manually analyzed by an experienced experimenter.

| Compound | social exploration vs LPS-injected vehicle-treated mice (LPS-injected mice [1]; adult (6-9 months-old) male mice, acute CBD) | social exploration (LPS-injected mice [1]; adult and young adult female mice, acute CBD, saline or LPS) | LPS-induced reduction in social exploration (LPS-injected mice [1]; young-adult male mice, CBD 30 mg/kg i.p. 3 consecutive days) | immobility time, each compound by itself (C57BL/6 mice) | time spent in immobility, forced swim test (LPS-injected mice [2]; CBDA 1, 5 mg/kg, CBD 25 and CBDA 1 mg/kg) | latency to the first episode of immobility (LPS-injected mice [2]; printed: CBDA 1 mg/kg) |
| --- | --- | --- | --- | --- | --- | --- |
| C=C(C)[C@@H]1CCC(C)=C[C@H]1c1c(O)cc(CCCCC)cc1O [CBD, cannabidiol] | significantly increased social interest | None of these parameters was influenced by treatment with CBD | no effects | no significant effects | – | – |
| C=C(C)[C@@H]1CCC(C)=C[C@H]1c1c(O)cc(CCCCC)c(C(=O)O)c1O [CBDA, Cannabidiolic acid] | – | – | – | – | no significant difference | significantly increased |
